# Laboratory results: patent publication US10035991B2, “Non-transgenic herbicide resistant plants” (priority 1999, dated 2018)
# Key:
# [1] = system: SA4247 Salmonella typhi cells expressing mutant Arabidopsis thaliana EPSPS; assay: Glyphosate resistance assay (growth by optical density at 600 nm); type: cell-based; conditions: 17 mM or 0 mM glyphosate, liquid M9 medium, OD 600 nm every hour for seven hours, compared to wild-type cells (FIG. 6)
# Protocol: Electrocompetent cells of SA4247, a LacZ—Salmonella typhi strain, were prepared according to well known procedures (see Current Protocols in Molecular Biology, (Wiley and Sons, Inc.)). 30 μl of SA4247 competent cells were electroporated with 20 ng of each plasmid DNA encoding Arabidopsis wild-type and mutant EPSPS proteins, Bacillus wild-type EPSPS, along with a mock transfection as a control. The settings for electroporation were 25 μF, 2.5 KV and 200 ohms. After electroporation, the cells were transferred into 15 mls culture tube and supplemented with 970 μl of SOC medium. The cultures were incubated for 1½ hours at 37° C. at 225 rpm. 501 of each culture were plated onto LB plates containing 17 μg/ml chloramphenicol (in duplicates) and incubated overnight at 37° C. On the following day, 5 colonies of each plate were picked and transferred onto M9 plates and incubated overnight at 37° C.
# Colonies from the overnight incubation on solid M9 were inoculated into 4 ml of liquid M9 medium and grown overnight at 37° C. On the following day, 25 ml of liquid M9 medium containing chloramphenicol, IPTG and 17 mM or 0 mM Glyphosate (Aldrich, 33775-7) were inoculated with 1-2 mls of each overnight culture (in duplicates), the starting OD (at 600 nm) was measured and all the cultures were normalized to start at the same OD. An OD measurement was taken every hour for seven hours. […]
# [2] = target: wild-type EPSPS from E. coli (Escherichia coli, UniProt P0A6D3); conditions: read-out: apparent Km for PEP; cited from earlier work
# wild-type EPSPS from E. coli, sequence (P0A6D3 whole entry): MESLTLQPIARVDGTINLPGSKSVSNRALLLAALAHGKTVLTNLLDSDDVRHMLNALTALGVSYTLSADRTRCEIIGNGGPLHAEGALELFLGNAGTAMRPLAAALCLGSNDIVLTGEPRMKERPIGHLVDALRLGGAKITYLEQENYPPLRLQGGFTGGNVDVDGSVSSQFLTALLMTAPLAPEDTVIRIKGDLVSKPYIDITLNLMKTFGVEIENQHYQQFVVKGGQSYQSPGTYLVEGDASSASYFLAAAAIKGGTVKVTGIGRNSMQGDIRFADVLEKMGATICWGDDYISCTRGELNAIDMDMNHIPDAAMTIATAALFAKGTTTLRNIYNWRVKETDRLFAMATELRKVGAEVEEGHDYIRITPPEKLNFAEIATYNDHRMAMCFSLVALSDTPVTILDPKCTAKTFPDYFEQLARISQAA
Structure (SMILES),growth rate of cells containing a mutation in the EPSPS gene [1],Km [2] [µM]
"O=C(O)CNCP(=O)(O)O [glyphosate, N-phosphonomethylglycine]",substantially similar growth rate in the absence or presence of glyphosate,
"C=C(OP(=O)(O)O)C(=O)O [PEP, phosphoenolpyruvic acid]",,10
